Measurements: ChEMBL document CHEMBL1201862, “PubChem BioAssay data set” (2004)
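Exposure lasted 48 hours, with cells grown in 96-well plates and compounds tested at five concentrations. GI50: concentration for 50% inhibition of growth.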 Active and inactive are the calls of the source. Cut-off read from the data, not from the text of the source: active = GI50 up to about 1.1 µM and inactive = higher. Non-standard residues stand in square brackets, D forms with d. Residues, ends and D or L forms follow the SMILES beside them. ξ: configuration not given here. Pen = CC(C)(S)[C@H](N)C(=O)O; ξL = CC(C)CC(N)C(=O)O

What was measured:
Test in all cases: DTP human tumour cell line panel, 48 h
U-251 = tested on: U-251
HT-29 = tested on: HT-29
SK-MEL-2 = tested on: SK-MEL-2
UO-31 = tested on: UO-31
A549 = tested on: A549
NCI-H23 = tested on: NCI-H23
CCRF-CEM = tested on: CCRF-CEM
Malme-3M = tested on: Malme-3M
UACC-257 = tested on: UACC-257
SN12C = tested on: SN12C
UACC-62 = tested on: UACC-62
HL-60 = tested on: HL-60
HOP-62 = tested on: HOP-62
NCI-H522 = tested on: NCI-H522
CAKI-1 = tested on: CAKI-1
SR = tested on: SR
ACHN = tested on: ACHN

| SMILES | GI50 (U-251) | GI50 (HT-29) | GI50 (SK-MEL-2) | GI50 (UO-31) | GI50 (A549) | GI50 (NCI-H23) | GI50 (CCRF-CEM) | GI50 (Malme-3M) | GI50 (UACC-257) | GI50 (SN12C) | GI50 (UACC-62) | GI50 (HL-60) | GI50 (HOP-62) | GI50 (NCI-H522) | GI50 (CAKI-1) | GI50 (SR) | GI50 (ACHN) |
| --- | --- | --- | --- | --- | --- | --- | --- | --- | --- | --- | --- | --- | --- | --- | --- | --- | --- |
| CN(C)CCNC(=O)c1cc(Cl)cc2cc3ccccc3nc12 | 1.64 µM (inactive) | 0.455 µM (active) | 1.98 µM (inactive) | 1.02 µM (active) | 0.557 µM (active) | 1.39 µM (inactive) | 0.498 µM (active) | 5.73 µM (inactive) | 1.6 µM (inactive) | 0.731 µM (active) | 0.652 µM (active) | 0.578 µM (active) | 1.62 µM (inactive) |  |  |  |  |
| CCOC(=O)/C=C/c1c[nH]c(C(=O)OCC)c1 | > 100 µM (inactive) | > 100 µM (inactive) | > 100 µM (inactive) | > 100 µM (inactive) | > 100 µM (inactive) | > 100 µM (inactive) | > 100 µM (inactive) | > 100 µM (inactive) | > 100 µM (inactive) | > 100 µM (inactive) | > 69.3 µM (inactive) | > 100 µM (inactive) | > 100 µM (inactive) | > 90.8 µM (inactive) | > 100 µM (inactive) |  |  |
| C=C1C[C@@H](O)C[C@@]2(C)C[C@@H]3OC(=O)C(=C)[C@@H]3C[C@H]12 | 12.2 µM (inactive) | 2.94 µM (inactive) | 11.9 µM (inactive) | 4.85 µM (inactive) | 23 µM (inactive) | 15.9 µM (inactive) | 3.56 µM (inactive) | 3.37 µM (inactive) | 4.43 µM (inactive) | 5.57 µM (inactive) | 5.96 µM (inactive) | 1.89 µM (inactive) | 15.4 µM (inactive) | 7.78 µM (inactive) | 4.22 µM (inactive) |  |  |
| COC(=O)C1C(O)C(C)C(O)C(C)(O)/C=C\C=C(C)C(=O)Nc2c(C)c(OC(C)=O)c3c(c2O)C(=O)C(C)=C2OCOC(=C23)C(C)=CC(C)(O)C(O)C(C)C1OC(C)=O (configuration not stated) | 57.4 µM (inactive) | 45.4 µM (inactive) | 19.6 µM (inactive) | > 100 µM (inactive) | > 100 µM (inactive) | 24.4 µM (inactive) | 34.7 µM (inactive) | 28.9 µM (inactive) | 26.1 µM (inactive) | 24 µM (inactive) | 21.1 µM (inactive) | 28.4 µM (inactive) | > 86.3 µM (inactive) | 32.4 µM (inactive) | 47.5 µM (inactive) |  |  |
| CC[C@H]1CN2CCc3cc(OC)c(OC)cc3[C@@H]2C[C@@H]1C[C@H]1NCCc2cc(O)c(OC)cc21 | 0.0333 µM (active) | 0.0319 µM (active) | 0.0319 µM (active) | 0.146 µM (active) | 0.025 µM (active) | 0.0261 µM (active) | 0.025 µM (active) | 0.0809 µM (active) | 0.0731 µM (active) | 0.0361 µM (active) | 0.0478 µM (active) | 0.025 µM (active) |  | 0.025 µM (active) | 0.025 µM (active) | < 0.01 µM (active) |  |
| COC(=O)C(Cc1ccc(N(C)C)cc1)(NC(=O)c1ccccc1)P(=O)(OC)OC (configuration not stated) | > 100 µM (inactive) | > 100 µM (inactive) | > 100 µM (inactive) | > 100 µM (inactive) | > 100 µM (inactive) | > 100 µM (inactive) | > 100 µM (inactive) |  | > 100 µM (inactive) | > 100 µM (inactive) | > 100 µM (inactive) | > 100 µM (inactive) | > 100 µM (inactive) | > 100 µM (inactive) | > 100 µM (inactive) | > 100 µM (inactive) | > 100 µM (inactive) |
| CCOC(=O)CNC(=O)NC12CC3CC(CC(C3)C1)C2 | 269 µM (inactive) | 366 µM (inactive) | 141 µM (inactive) | 171 µM (inactive) | 229 µM (inactive) | 182 µM (inactive) | 182 µM (inactive) | 133 µM (inactive) | 176 µM (inactive) | 219 µM (inactive) | 125 µM (inactive) | 177 µM (inactive) | 185 µM (inactive) | 142 µM (inactive) | 169 µM (inactive) |  |  |
| CCCCCCSc1nc(N)nc2nc[nH]c12 | 35.4 µM (inactive) | 34.4 µM (inactive) | 18.4 µM (inactive) | 24.3 µM (inactive) | 30 µM (inactive) | 31.8 µM (inactive) | 46.6 µM (inactive) | 35.7 µM (inactive) | 37.7 µM (inactive) | 36.6 µM (inactive) | 37 µM (inactive) | 19.6 µM (inactive) | 34.5 µM (inactive) | 15.7 µM (inactive) |  |  |  |
| c1ccc2c(c1)SCCc1cn[nH]c1-2 | > 100 µM (inactive) | > 100 µM (inactive) | > 100 µM (inactive) | > 100 µM (inactive) | > 100 µM (inactive) | > 100 µM (inactive) | > 100 µM (inactive) | > 100 µM (inactive) | > 100 µM (inactive) | > 100 µM (inactive) | > 100 µM (inactive) | > 100 µM (inactive) | > 100 µM (inactive) | > 100 µM (inactive) | > 100 µM (inactive) |  |  |
| O=C(CC/C=C(/CS(=O)(=O)c1ccccc1)S(=O)(=O)c1ccccc1)c1ccccc1 | 72.3 µM (inactive) | 75 µM (inactive) | 50.8 µM (inactive) | > 100 µM (inactive) | > 100 µM (inactive) | > 100 µM (inactive) | 12.1 µM (inactive) | > 10 µM (inactive) | > 100 µM (inactive) | > 100 µM (inactive) | 22.2 µM (inactive) | 42.9 µM (inactive) | > 100 µM (inactive) | 10.4 µM (inactive) |  | 56.8 µM (inactive) | > 100 µM (inactive) |
| CC(=O)OCC1OC(Nc2ncc(-c3ccc(C)cc3)s2)C(OC(C)=O)C(OC(C)=O)C1OC(C)=O (configuration not stated) | 56.8 µM (inactive) | 29.2 µM (inactive) | 34 µM (inactive) | 19.8 µM (inactive) | 44.5 µM (inactive) | 50.7 µM (inactive) | 29.1 µM (inactive) | 61.5 µM (inactive) | 25.6 µM (inactive) | 25.4 µM (inactive) | 27 µM (inactive) | 21 µM (inactive) | 52 µM (inactive) | 64.9 µM (inactive) | 29 µM (inactive) |  |  |
| CN(C)CCOc1cc2c(c3ccccc13)-c1ccccc1C2=O | 2.16 µM (inactive) | 1.19 µM (inactive) | 1.95 µM (inactive) | 1.5 µM (inactive) | 9.62 µM (inactive) | 2.36 µM (inactive) | 1.52 µM (inactive) | 2.19 µM (inactive) | 1.72 µM (inactive) | 1.58 µM (inactive) | 1.8 µM (inactive) | 1.24 µM (inactive) | 1.19 µM (inactive) | 1.32 µM (inactive) | 0.388 µM (active) |  |  |
| C[Si](C)(C)/C(I)=C/CO | 18.3 µM (inactive) | 20.5 µM (inactive) | 19.7 µM (inactive) | 34.4 µM (inactive) | 24.1 µM (inactive) | 18 µM (inactive) | 22 µM (inactive) | 27.1 µM (inactive) | 15.5 µM (inactive) | 22 µM (inactive) | 20.4 µM (inactive) |  |  | 16.1 µM (inactive) |  |  | 17 µM (inactive) |
| O=C1C2C3C=C4c5ccccc5N(c5ccccc5)C4(C2C(=O)N1Cc1ccccc1)C1C(=O)N(Cc2ccccc2)C(=O)C31 (configuration not stated) | > 100 µM (inactive) | > 100 µM (inactive) | > 100 µM (inactive) | > 100 µM (inactive) | > 100 µM (inactive) | > 100 µM (inactive) | > 100 µM (inactive) | > 100 µM (inactive) | > 100 µM (inactive) | > 100 µM (inactive) |  | > 100 µM (inactive) | > 10 µM (inactive) |  | > 10 µM (inactive) | > 100 µM (inactive) | > 100 µM (inactive) |
| C[n+]1[se]c2ccccc2c1Cl | 30.9 µM (inactive) | 28.4 µM (inactive) | 11.7 µM (inactive) | 24.8 µM (inactive) | 32 µM (inactive) | 20.1 µM (inactive) | 8.67 µM (inactive) | 23.3 µM (inactive) | 17.9 µM (inactive) | 15.5 µM (inactive) | 17.7 µM (inactive) | 7.89 µM (inactive) | > 40.7 µM (inactive) | 20.3 µM (inactive) | > 41.8 µM (inactive) |  | > 48.8 µM (inactive) |
| Cc1cc(O)c2c(c1O)C(=O)C13C(=C(O)C4C(O)C1C1C(O)C3C(O)=C3C(=O)c5c(O)cc(C)c(O)c5C(=O)C341)C2=O (configuration not stated) | 0.0214 µM (active) | 0.0451 µM (active) | 0.172 µM (active) | 0.0392 µM (active) | 0.0311 µM (active) | 0.207 µM (active) | 0.035 µM (active) | 0.0428 µM (active) | 0.267 µM (active) | 0.0471 µM (active) | 0.0489 µM (active) |  | 0.207 µM (active) | 0.185 µM (active) | 0.209 µM (active) |  |  |
| C[S+](C)CC1OC(n2cnc3c(N)ncnc32)C(O)C1O (configuration not stated) | > 225 µM (inactive) | > 225 µM (inactive) | > 225 µM (inactive) | > 225 µM (inactive) | > 225 µM (inactive) | > 225 µM (inactive) | > 225 µM (inactive) | > 225 µM (inactive) | > 225 µM (inactive) | > 178 µM (inactive) | > 96.2 µM (inactive) | > 225 µM (inactive) | > 225 µM (inactive) | > 225 µM (inactive) | > 225 µM (inactive) |  |  |
| CSCC[C@H](NC(=O)C(CC(C)C)NC(=O)[C@H](Cc1c[nH]cn1)NC(=O)CNC(=O)[C@@H](NC(=O)[C@@H](C)NC(=O)[C@H](Cc1c[nH]c2ccccc12)NC(=O)[C@H](CCC(N)=O)NC(=O)[C@@H](N)CC(N)=O)C(C)(C)SC)C(N)=O (some centres not stated) (H-NQW[dA][Pen](Me)GH[ξL]M-NH2) | > 100 µM (inactive) | > 100 µM (inactive) | > 100 µM (inactive) | > 100 µM (inactive) | > 100 µM (inactive) | > 100 µM (inactive) | > 100 µM (inactive) | > 100 µM (inactive) | > 100 µM (inactive) | > 100 µM (inactive) | > 100 µM (inactive) | > 100 µM (inactive) | > 100 µM (inactive) | > 100 µM (inactive) | > 100 µM (inactive) |  |  |
